In patent publication US6346535B1, “Fungicidal mixtures” (American Cyanamid Company, priority 1999, dated 2002):

Legend:
Assay type in all cases: in vivo
[1] = test system: Erysiphe cichoracearum on cucumbers; assay: Greenhouse trial, 4 day residual, Erysiphe cichoracearum on cucumbers; settings: Golovinomyces cichoracearum, 96 h, Table XI, compound alone, read-out: Observed Efficacy
Summary of the method: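 Cucumber plants were sprayed to near run-off with compounds or mixtures (5% acetone/0.05% Tween 20 aqueous). Four days later they were inoculated by dusting with Erysiphe cichoracearum conidia. Percent diseased leaf area was assessed about 7 days after inoculation, and efficacy and Colby synergy were calculated from it.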

[2] = test system: Pyrenophora teres on barley; assay: Greenhouse trial, 4 day residual, Pyrenophora teres on barley; settings: Pyrenophora teres, 96 h, Table XIII (Example 13), 4 day residual, read-out: Observed Efficacy
Text: (§1) The fungicides are applied in single treatments, or in a combination comprising a benzophenone of formula I and a compound selected from (A) through (E) as defined above. The compounds are applied in form of an aqueous spray mix obtained from a concentrated formulation or the technical material.
(§2) 1. Seed is planted in 6 cm diameter plastic pots and maintained in the greenhouse.
(§3) 2. When the primary leaf is fully expanded (in the case of cereals) or several leaves are present (in the case of dicots), formulated test compounds are sprayed with a three nozzle overhead fungicide sprayer to near run-off. Alternatively, a single nozzle overhead track sprayer is used for application of the compounds to cereals at a rate of 200 liters/ha (l/ha). Plants are then allowed to air-dry.
(§4) 3. Inoculation precedes treatment in the case of curative evaluations and follows treatment in case of residual evaluations. For inoculation of powdery mildew disease, plants are set up on greenhouse benches with bottom watering mats and inoculated by dusting them with conidia from infected plants. Between inoculation and treatment for curative evaluations and between treatment and inoculation for residual evaluations, plants are maintained in the greenhouse with bottom watering. For inoculation of non-powdery mildew diseases, an aqueous spore suspension of the pathogen is applied to the plant and the plants are kept 1-2 days in a moist infection chamber before being returned to the greenhouse where they are maintained by bottom watering.
(§5) 4. Disease on the foliage as percent leaf area with disease symptoms/signs is evaluated about 7 days after inoculation. In the case of wheat, the tips and bases of the leaves are excluded from the evaluation. [formula]
(§6) 1. Technical compounds are formulated in a solvent/surfactant system consisting of 5% acetone and 0.05% Tween 20 in deionized water. Compounds are dissolved in acetone prior to addition of the water; the Tween 20 can be added through either the acetone or the water. Dilutions are made using the solvent/surfactant system. Formulated compounds are prepared using deionized water.
(§7) Assessments of the diseases took place at the indicated day after the application of the compounds. Per cent infected leaf area infected was evaluated. The efficacy of the compounds/compounds mixtures to control the diseases was calculated by using the formula given above under item 4: […]
(§8) Synergy of a fungicide mixture was determined by comparing the actual (observed) fungicidal activity of the mixture to the expected fungicidal activity of the mixture as calculated using the COLBY formula given hereinabove.
Fungicidal Efficacy of the Mixture of BP-4+Other Fungicides (4 Day Residual) Against Pyrenophora teres on Barley

Cercospora beticola = assay: Field trial against the sugar beet disease Cercospora beticola; settings: Table XIX, compound alone
Protocol: The trials are carried out under greenhouse (Examples 1 to 18) or field conditions (Example 19) in residual or curative applications. The fungicides are applied in single treatments, or in a combination comprising a benzophenone of formula I and a compound selected from (A) through (E) as defined above. The compounds are applied in form of an aqueous spray mix obtained from a concentrated formulation or the technical material. For the field study formulated benzophenones BP-1 through BP-4 and formulated compounds from (A) through (E) were used. The compounds are applied according to good agricultural practice in form of an aqueous spray mix obtained from concentrated formulation or the technical material at a rate of 400 l/ha. The disease control is evaluated according to the formula given for the greenhouse tests. Fungicidal Efficacy of the Mixture of BP-1+Metconazole in the Field Against the Sugar Beet Disease Cercospora beticola The tank mix was obtained from a SC formulation containing 100 g of BP-1 per liter and a SL formulation containing 60 g of metconazole per liter.

[3] = test system: Blumeria graminis f. sp. tritici on wheat; assay: Greenhouse trial, 2 day curative, Blumeria graminis f. sp. tritici on wheat; settings: Table XVII, compound alone
Protocol: as §1, with “The trials are carried out under greenhouse (Examples 1 to 18) or field conditions (Example 19) in residual or curative applications. The fungicides” for “The fungicides”
as §2, §3, §4, §5, §6, §7, §8
Fungicidal Efficacy of the Mixture of Different Benzophenones+Metconazole (2 Day Curative) Against Blumeria graminis f. sp. tritici on Wheat
The tank mixes were obtained from technical material of the benzophenones BP-2 and BP-4 and metconazole.

[4] = test system: Blumeria graminis on wheat; assay: Greenhouse trial, 3 day protective, Blumeria graminis on wheat; settings: Table V, compound alone
Text: as §1, §2, §3, §4, §5, §6, §7, §8
Fungicidal Efficacy of the Mixture of BP-5+Triforine (3 Day Protective) Against Blumeria graminis on Wheat
Fungicidal Efficacy of the Mixture of BP-1+Triadimefon (3 Day Protective) Against Blumeria graminis on Wheat

[5] = test system: Blumeria graminis on wheat; assay: Greenhouse trial, 4 day curative, Blumeria graminis on wheat; settings: compound alone
Protocol: The trials are carried out under greenhouse (Examples 1 to 18) or field conditions (Example 19) in residual or curative applications. The fungicides are applied in single treatments, or in a combination comprising a benzophenone of formula I and a compound selected from (A) through (E) as defined above. The compounds are applied in form of an aqueous spray mix obtained from a concentrated formulation or the technical material. […] Seed is planted in 6 cm diameter plastic pots and maintained in the greenhouse. […] When the primary leaf is fully expanded (in the case of cereals) or several leaves are present (in the case of dicots), formulated test compounds are sprayed with a three nozzle overhead fungicide sprayer to near run-off. Alternatively, a single nozzle overhead track sprayer is used for application of the compounds to cereals at a rate of 200 liters/ha (l/ha). Plants are then allowed to air-dry. […] Inoculation precedes treatment in the case of curative evaluations and follows treatment in case of residual evaluations. For inoculation of powdery mildew disease, plants are set up on greenhouse benches with bottom watering mats and inoculated by dusting them with conidia from infected plants. Between inoculation and treatment for curative evaluations and between treatment and inoculation for residual evaluations, plants are maintained in the greenhouse with bottom watering. For inoculation of non-powdery mildew diseases, an aqueous spore suspension of the pathogen is applied to the plant and the plants are kept 1-2 days in a moist infection chamber before being returned to the greenhouse where they are maintained by bottom watering. […] Disease on the foliage as percent leaf area with disease symptoms/signs is evaluated about 7 days after inoculation. In the case of wheat, the tips and bases of the leaves are excluded from the evaluation. [formula] […] Compounds are dissolved in acetone prior to addition of the water; the Tween 20 can be added through either the acetone or the water. Dilutions are made using the solvent/surfactant system. Formulated compounds are prepared using deionized water. Assessments of the diseases took place at the indicated day after the application of the compounds. Per cent infected leaf area infected was evaluated. […] Synergy of a fungicide mixture was determined by comparing the actual (observed) fungicidal activity of the mixture to the expected fungicidal activity of the mixture as calculated using the COLBY formula given hereinabove.

Structure (SMILES)	pest or weed control at 0.4 ppm ([1]; dose rate 0.4 ppm) [%]	pest or weed control at 10 ppm ([1]; dose rate 10 ppm) [%]	pest or weed control at 50 ppm ([1]; dose rate 50 ppm) [%]	pest or weed control at 0.4 ppm ([2]; dose rate 0.4 ppm) [%]	pest or weed control at 10 ppm ([2]; dose rate 10 ppm) [%]	Observed Efficacy (Cercospora beticola; dose rate 90 g/ha) [%]	Observed Efficacy ([3]; dose rate 0.33 ppm) [%]	Observed Efficacy ([3]; dose rate 1 ppm) [%]	Observed Efficacy ([3]; dose rate 3 ppm) [%]	Observed Efficacy ([3]; dose rate 9 ppm) [%]	Observed Efficacy ([3]; dose rate 27 ppm) [%]	Observed Efficacy ([4]; dose rate 1 ppm) [%]	Observed Efficacy ([4]; dose rate 5 ppm) [%]	Observed Efficacy (Cercospora beticola; dose rate 250 g/ha) [%]	Observed Efficacy ([5]; Table I, dose rate 25 ppm) [%]	Observed Efficacy ([5]; Table I, dose rate 125 ppm) [%]	Observed Efficacy ([5]; Table II, dose rate 25 ppm) [%]	Observed Efficacy ([5]; Table II, dose rate 125 ppm) [%]	Observed Efficacy ([5]; Table III, dose rate 25 ppm) [%]	Observed Efficacy ([5]; Table III, dose rate 125 ppm) [%]
CC1(C)CCC(Cc2ccc(Cl)cc2)C1(O)Cn1cncn1 (centres unmarked) [Metconazole]	2	75	99	0	47	58	0	2	7	14	40	–	–	–	–	–	–	–	–	–
CCCCOc1c(OC)c(OC)cc(C)c1C(=O)c1c(Cl)cccc1Cl [BP-1, 6′-butoxy-2,6-dichloro-4′,5′-dimethoxy-2′-methylbenzophenone]	–	–	–	–	–	–	–	–	–	–	–	44	78	42.5	1	42	1	42	1	42
